From ChEMBL document CHEMBL1201862, “PubChem BioAssay data set” (2004)
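Briefly, cells in 96-well plates were exposed to five compound concentrations for 48 h, and endpoints were estimated by linear interpolation. GI50 marks 50% less growth.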 The source made the active and inactive calls. Rule as the data show it: active = GI50 up to about 1.1 µM and inactive = higher.

Columns and labels:
Experiment in all cases: NCI tumour cell line growth inhibition, 48 h
A498 = tested on: A498
A549 = tested on: A549
ACHN = tested on: ACHN
CCRF-CEM = tested on: CCRF-CEM
HCT-116 = tested on: HCT-116
HOP-62 = tested on: HOP-62
HOP-92 = tested on: HOP-92
IGROV-1 = tested on: IGROV-1
KM12 = tested on: KM12
NCI-H226 = tested on: NCI-H226
NCI-H460 = tested on: NCI-H460
OVCAR-8 = tested on: OVCAR-8
RXF 393 = tested on: RXF 393
SF-268 = tested on: SF-268
SNB-19 = tested on: SNB-19
TK-10 = tested on: TK-10
OVCAR-3 = tested on: OVCAR-3
SK-MEL-28 = tested on: SK-MEL-28

Measured: GI50

O=C(C(=O)N1CC2C=CC1CC2)c1c[nH]c2ccccc12 (stereo not drawn)
inactive: A498 > 100 µM | A549 > 100 µM | ACHN > 100 µM | CCRF-CEM > 100 µM | HCT-116 > 100 µM | HOP-62 > 100 µM | HOP-92 > 100 µM | IGROV-1 > 100 µM | KM12 > 100 µM | NCI-H226 > 100 µM | NCI-H460 > 100 µM | OVCAR-8 > 100 µM | RXF 393 > 100 µM | SF-268 > 100 µM | SNB-19 > 100 µM | TK-10 > 100 µM

O=C1O/C(=C(\Br)c2cccc3ccccc23)c2ccccc21
inactive: A498 19.1 µM | A549 20 µM | ACHN 34.2 µM | CCRF-CEM 20 µM | HCT-116 31.4 µM | HOP-62 > 100 µM | HOP-92 29 µM | IGROV-1 27.9 µM | KM12 29.7 µM | NCI-H226 > 41.3 µM | NCI-H460 > 53.6 µM | OVCAR-3 26.8 µM | OVCAR-8 > 43.7 µM | RXF 393 > 49 µM | SF-268 > 37.5 µM | SK-MEL-28 > 35.1 µM | TK-10 30.4 µM

N/N=C1\C(=O)N(c2ccc(Cl)cc2Cl)C(=O)C(=O)C1c1nc2ccccc2o1 (stereo not drawn)
inactive: A498 > 100 µM | A549 > 100 µM | ACHN > 100 µM | CCRF-CEM 57.5 µM | HCT-116 > 100 µM | HOP-62 > 100 µM | HOP-92 > 100 µM | IGROV-1 > 100 µM | KM12 > 100 µM | NCI-H226 > 100 µM | NCI-H460 > 100 µM | OVCAR-3 > 100 µM | OVCAR-8 > 100 µM | SF-268 > 100 µM | SK-MEL-28 > 100 µM | SNB-19 > 100 µM | TK-10 > 100 µM

Cc1ccc2nc(NC(=O)C(=O)C(C(=O)c3ccc4ccccc4c3)C3OC(=O)c4ccccc43)sc2c1 (stereo not drawn)
inactive: A498 5.48 µM | A549 11.5 µM | ACHN 16.5 µM | HCT-116 5.6 µM | HOP-62 11 µM | HOP-92 3.53 µM | IGROV-1 14.9 µM | KM12 16.8 µM | NCI-H226 2.1 µM | NCI-H460 4.43 µM | OVCAR-3 22.9 µM | OVCAR-8 7.74 µM | RXF 393 1.87 µM | SF-268 8.3 µM | SK-MEL-28 5.21 µM | SNB-19 6.55 µM

COc1ccc(-c2cc(=O)c3ccccc3[nH]2)c(OC)c1
inactive: A549 > 100 µM | ACHN > 100 µM | CCRF-CEM > 100 µM | HCT-116 > 100 µM | HOP-62 > 100 µM | IGROV-1 > 100 µM | KM12 > 100 µM | NCI-H460 > 100 µM | OVCAR-3 > 100 µM | OVCAR-8 > 100 µM | RXF 393 > 100 µM | SF-268 > 100 µM | SK-MEL-28 > 100 µM | SNB-19 > 100 µM | TK-10 > 100 µM

CC(=O)O[C@H]1CC[C@@]2(C)C(=CC[C@@H]3C2CC[C@]2(C)Nc4[nH]ncc4CC32)C1 (stereo partly drawn)
inactive: A498 > 100 µM | A549 32.2 µM | ACHN > 100 µM | CCRF-CEM 18.2 µM | HCT-116 16.4 µM | HOP-62 > 100 µM | IGROV-1 75.5 µM | KM12 16.6 µM | NCI-H226 > 100 µM | NCI-H460 17.3 µM | OVCAR-3 19.2 µM | OVCAR-8 29.9 µM | RXF 393 30.4 µM | SK-MEL-28 32.2 µM | TK-10 > 100 µM

CC(C)(C)C1CC[C@H]2c3c([nH]c4ccc(Br)cc34)[C@H]3C(=O)N(c4ccccc4)C(=O)[C@H]3[C@H]2C1 (stereo partly drawn)
inactive: A549 27.4 µM | ACHN > 100 µM | CCRF-CEM 5.52 µM | HCT-116 11.3 µM | HOP-62 54 µM | HOP-92 23.1 µM | IGROV-1 > 100 µM | KM12 17.6 µM | NCI-H226 35.2 µM | NCI-H460 8.09 µM | OVCAR-3 75.2 µM | OVCAR-8 3.49 µM | RXF 393 32.7 µM | SF-268 8.73 µM | SK-MEL-28 41.1 µM | SNB-19 23.6 µM | TK-10 48.9 µM

N#CCC(=O)N/N=C1/C(=O)NC(=O)C(=O)C1c1nc2ccccc2s1 (stereo not drawn)
inactive: A498 > 100 µM | A549 > 100 µM | ACHN > 100 µM | CCRF-CEM > 100 µM | HCT-116 > 100 µM | HOP-62 > 100 µM | HOP-92 67.5 µM | IGROV-1 > 100 µM | NCI-H226 50.1 µM | OVCAR-3 > 100 µM | OVCAR-8 > 100 µM | RXF 393 > 100 µM | SF-268 > 100 µM | SK-MEL-28 > 100 µM | SNB-19 > 100 µM | TK-10 > 100 µM

CCC(C)Cn1c(C)nc2c1C(=O)c1ccccc1C2=O (stereo not drawn)
inactive: A549 31.5 µM | ACHN 36.1 µM | CCRF-CEM 21.4 µM | HCT-116 > 10 µM | HOP-62 23.8 µM | HOP-92 20.4 µM | IGROV-1 42.5 µM | KM12 27.9 µM | NCI-H226 > 100 µM | NCI-H460 14.8 µM | OVCAR-3 23.3 µM | OVCAR-8 32.9 µM | RXF 393 33.9 µM | SF-268 23.9 µM | SK-MEL-28 37.2 µM | SNB-19 53.6 µM | TK-10 41.4 µM

CCCCCCCCCCCCOP(N)(=O)OCCCCCCCCCCCC
inactive: A549 > 100 µM | ACHN > 100 µM | CCRF-CEM > 100 µM | HCT-116 > 100 µM | HOP-62 > 100 µM | IGROV-1 > 100 µM | NCI-H460 > 100 µM | OVCAR-3 > 100 µM | OVCAR-8 > 100 µM | RXF 393 > 100 µM | SF-268 > 100 µM | SK-MEL-28 > 100 µM | SNB-19 > 100 µM | TK-10 > 100 µM

CC1(C)C(=O)C(C)(C)C1=S
inactive: A498 > 100 µM | A549 > 100 µM | ACHN > 100 µM | CCRF-CEM > 100 µM | HCT-116 > 100 µM | HOP-62 > 100 µM | IGROV-1 > 100 µM | KM12 > 100 µM | NCI-H226 > 100 µM | NCI-H460 > 100 µM | OVCAR-3 > 100 µM | OVCAR-8 > 100 µM | SF-268 > 100 µM | SK-MEL-28 > 100 µM | SNB-19 > 100 µM | TK-10 > 100 µM

CCOP(=O)(C/C(O)=C1\C(=O)C(CCCNC(=O)OC(C)(C)C)N(Cc2ccc(OC)c(OC)c2)C1=O)OCC (stereo not drawn)
inactive: A498 > 100 µM | A549 > 100 µM | ACHN > 100 µM | CCRF-CEM > 100 µM | HCT-116 > 100 µM | HOP-62 > 100 µM | IGROV-1 > 100 µM | KM12 > 100 µM | NCI-H226 77.4 µM | NCI-H460 > 100 µM | OVCAR-3 > 100 µM | OVCAR-8 > 100 µM | RXF 393 > 100 µM | SF-268 > 100 µM | SK-MEL-28 > 100 µM | SNB-19 > 100 µM | TK-10 > 100 µM
